“And” between values parts separate entries of the source, which are not always exact repeats. Equal values may be shown once. The source made the active and inactive calls.
Columns and labels:
[1] = Luminescence Cell-Based Dose Retest to Confirm Inhibitors of Cancer Stem Cells. [Related pubchem assays (depositor defined):AID2717, AID2721]; type: functional; conditions: Homo sapiens
[2] = target: Cytochrome P450 3A4 (Homo sapiens, UniProt P08684);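 further: CYP3A4 tested as one member of a cytochrome P450 panel screen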
[3] = target: Cytochrome P450 2C19 (Homo sapiens, UniProt P33261); assay: Cytochrome panel assay with activity outcomes. Panel member name: p450-cyp2c19 Compounds with AC50 equal or less than 10 uM are considered active; type: functional; conditions: read-out: AC50
[4] = target: T1, Cytochrome P450 1A2 (Homo sapiens, UniProt P05177);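 further: PubChem cytochrome P450 panel assay, CYP1A2 panel member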
T1 sequence (P05177 whole entry): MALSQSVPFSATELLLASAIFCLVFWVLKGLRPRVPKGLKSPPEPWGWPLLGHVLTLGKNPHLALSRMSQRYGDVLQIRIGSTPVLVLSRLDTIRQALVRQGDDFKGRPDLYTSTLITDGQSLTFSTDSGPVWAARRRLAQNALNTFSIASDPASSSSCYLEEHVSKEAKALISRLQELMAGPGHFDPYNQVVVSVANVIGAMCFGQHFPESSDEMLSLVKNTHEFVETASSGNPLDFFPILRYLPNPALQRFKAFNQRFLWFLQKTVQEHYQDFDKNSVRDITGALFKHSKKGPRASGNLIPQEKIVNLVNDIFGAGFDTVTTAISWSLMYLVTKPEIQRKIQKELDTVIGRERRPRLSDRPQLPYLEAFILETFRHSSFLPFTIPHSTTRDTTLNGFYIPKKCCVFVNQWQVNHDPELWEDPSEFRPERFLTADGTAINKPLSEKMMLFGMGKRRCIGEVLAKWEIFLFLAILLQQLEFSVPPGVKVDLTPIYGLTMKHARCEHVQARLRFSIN

[5] = target: Cytochrome P450 2C9 (Homo sapiens, UniProt P11712)
[6] = target: T2, Rac GTPase-activating protein 1 (Homo sapiens, UniProt Q9H0H5); assay: blockers of MgcRacGAP-driven Rac1 GTP hydrolysis – biochemical, ADP Hunter fluorescence, primary and confirmatory, confirmation (AID 624330); type: functional
T2 sequence (Q9H0H5 whole entry): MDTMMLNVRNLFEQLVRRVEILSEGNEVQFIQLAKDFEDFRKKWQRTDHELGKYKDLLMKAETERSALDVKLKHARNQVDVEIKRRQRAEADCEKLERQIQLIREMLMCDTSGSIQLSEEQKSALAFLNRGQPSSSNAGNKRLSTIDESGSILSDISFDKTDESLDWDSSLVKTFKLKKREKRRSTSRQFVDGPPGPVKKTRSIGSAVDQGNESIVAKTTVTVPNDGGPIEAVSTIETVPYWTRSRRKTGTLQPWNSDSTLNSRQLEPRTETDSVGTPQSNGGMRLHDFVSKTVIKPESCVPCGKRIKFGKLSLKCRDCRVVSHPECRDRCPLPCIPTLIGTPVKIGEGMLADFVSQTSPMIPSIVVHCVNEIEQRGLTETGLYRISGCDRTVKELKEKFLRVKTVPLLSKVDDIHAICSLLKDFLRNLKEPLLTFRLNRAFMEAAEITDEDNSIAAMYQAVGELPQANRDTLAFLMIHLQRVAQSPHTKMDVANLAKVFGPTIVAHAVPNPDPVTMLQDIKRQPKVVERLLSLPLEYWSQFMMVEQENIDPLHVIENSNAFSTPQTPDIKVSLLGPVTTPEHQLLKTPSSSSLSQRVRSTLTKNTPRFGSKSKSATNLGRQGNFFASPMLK

[7] = NIH-3T3 fibroblast cytotoxicity, dose response, cytotoxicity control, cell-based, fluorescence, Alamar Blue, secondary assay (AID 2327); type: functional;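 further: NIH-3T3 mouse fibroblasts cultured with fluconazole at 8 µg/mL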
[8] = fluconazole-exposed Candida albicans growth modulators – fluorescence, retest, confirmation (AID 2467); type: functional, cell-based
[9] = target: T3, Replicative DNA helicase DnaB (Mycobacterium tuberculosis, UniProt P9WMR3); assay: DnaB intein splicing inhibitors, dose response, biochemical, cell-free fluorescence (AID 449749); type: functional
T3 sequence (P9WMR3 whole entry): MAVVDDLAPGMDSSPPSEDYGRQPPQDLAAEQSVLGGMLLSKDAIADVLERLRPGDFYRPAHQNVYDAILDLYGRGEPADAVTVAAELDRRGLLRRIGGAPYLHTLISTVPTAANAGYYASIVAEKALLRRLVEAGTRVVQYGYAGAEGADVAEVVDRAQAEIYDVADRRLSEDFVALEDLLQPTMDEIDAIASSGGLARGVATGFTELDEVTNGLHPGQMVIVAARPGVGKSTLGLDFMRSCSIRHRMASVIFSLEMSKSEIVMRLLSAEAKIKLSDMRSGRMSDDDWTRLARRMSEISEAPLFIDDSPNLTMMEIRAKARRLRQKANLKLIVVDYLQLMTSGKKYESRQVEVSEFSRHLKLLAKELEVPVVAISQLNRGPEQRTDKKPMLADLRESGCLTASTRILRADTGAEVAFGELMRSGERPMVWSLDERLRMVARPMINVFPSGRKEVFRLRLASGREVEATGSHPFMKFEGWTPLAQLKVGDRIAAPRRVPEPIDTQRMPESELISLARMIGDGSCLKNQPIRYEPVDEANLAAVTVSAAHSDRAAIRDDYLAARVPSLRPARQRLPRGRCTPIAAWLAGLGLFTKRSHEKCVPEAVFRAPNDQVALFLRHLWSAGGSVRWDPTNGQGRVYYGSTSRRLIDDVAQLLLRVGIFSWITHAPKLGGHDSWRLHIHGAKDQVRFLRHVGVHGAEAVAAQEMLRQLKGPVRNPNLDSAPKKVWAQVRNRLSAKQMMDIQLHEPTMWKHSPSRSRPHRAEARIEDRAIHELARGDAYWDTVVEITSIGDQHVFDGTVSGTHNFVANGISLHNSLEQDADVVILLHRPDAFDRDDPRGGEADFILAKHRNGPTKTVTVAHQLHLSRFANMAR

[10] = target: T4, Protein RecA (Mycobacterium tuberculosis, UniProt P9WHJ3); assay: Fluorescence Cell-Free Homogeneous Dose Retest to Identify Inhibitors of RecA-Intein Splicing Activity. [Related pubchem assays (depositor defined):AID2097, AID2223, AID489010, AID492950]; type: functional
T4 sequence (P9WHJ3 whole entry): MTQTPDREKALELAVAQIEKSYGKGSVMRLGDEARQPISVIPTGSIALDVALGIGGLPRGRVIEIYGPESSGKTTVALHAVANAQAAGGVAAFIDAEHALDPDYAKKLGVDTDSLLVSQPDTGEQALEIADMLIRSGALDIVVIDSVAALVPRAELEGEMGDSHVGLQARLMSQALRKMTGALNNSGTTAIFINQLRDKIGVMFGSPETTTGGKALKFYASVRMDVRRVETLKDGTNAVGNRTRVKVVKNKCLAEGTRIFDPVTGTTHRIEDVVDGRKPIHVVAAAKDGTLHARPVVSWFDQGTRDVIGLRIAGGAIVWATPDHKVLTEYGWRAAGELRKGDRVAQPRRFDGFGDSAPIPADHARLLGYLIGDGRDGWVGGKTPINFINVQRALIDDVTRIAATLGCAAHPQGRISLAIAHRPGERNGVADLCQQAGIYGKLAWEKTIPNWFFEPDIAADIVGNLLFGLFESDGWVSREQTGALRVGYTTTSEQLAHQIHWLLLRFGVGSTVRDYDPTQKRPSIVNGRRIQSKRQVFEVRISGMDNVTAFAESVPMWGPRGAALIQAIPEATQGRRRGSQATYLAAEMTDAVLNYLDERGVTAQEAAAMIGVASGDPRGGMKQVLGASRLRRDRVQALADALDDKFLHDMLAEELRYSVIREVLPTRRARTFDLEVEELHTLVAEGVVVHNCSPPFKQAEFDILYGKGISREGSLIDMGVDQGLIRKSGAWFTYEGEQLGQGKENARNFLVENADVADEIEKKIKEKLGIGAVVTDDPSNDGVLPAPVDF

[11] = reduction of Shn3 3'UTR-driven luciferase in osteoblasts – cell-based, Clone20 osteoblasts, firefly luciferase, cherry-picked, dose response (AID 624132); type: functional;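 further: firefly luciferase luminescence from reporter carrying the Shn3 3'UTR in osteoblasts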
[12] = loss of viability in HepG2 cells – cell-based, CellTiter-Glo, cherry-picked, cytotoxicity control for Shn3 inhibitor project, dose response (AID 624134); type: functional
[13] = non-specific 3'UTR reporter inhibition in Clone20-Shn3RL – cell-based, Renilla luciferase, cherry-picked, counter-screen for Shn3 inhibitor project, dose response (AID 624133); type: functional

Sequence of Cytochrome P450 2C19 (P33261 whole entry): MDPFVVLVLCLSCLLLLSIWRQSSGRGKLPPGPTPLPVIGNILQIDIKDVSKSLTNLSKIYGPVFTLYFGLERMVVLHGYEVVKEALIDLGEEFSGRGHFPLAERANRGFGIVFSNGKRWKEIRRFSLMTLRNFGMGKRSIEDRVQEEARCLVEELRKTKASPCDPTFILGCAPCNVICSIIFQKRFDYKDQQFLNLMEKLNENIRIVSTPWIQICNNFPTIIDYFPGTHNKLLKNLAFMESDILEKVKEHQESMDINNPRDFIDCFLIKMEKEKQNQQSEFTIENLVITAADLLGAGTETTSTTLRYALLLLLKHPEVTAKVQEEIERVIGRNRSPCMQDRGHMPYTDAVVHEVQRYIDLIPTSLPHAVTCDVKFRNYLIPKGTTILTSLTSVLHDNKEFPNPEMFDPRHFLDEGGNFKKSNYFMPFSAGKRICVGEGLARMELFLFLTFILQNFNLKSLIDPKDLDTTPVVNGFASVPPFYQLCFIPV
Sequence of Cytochrome P450 2C9 (P11712 whole entry): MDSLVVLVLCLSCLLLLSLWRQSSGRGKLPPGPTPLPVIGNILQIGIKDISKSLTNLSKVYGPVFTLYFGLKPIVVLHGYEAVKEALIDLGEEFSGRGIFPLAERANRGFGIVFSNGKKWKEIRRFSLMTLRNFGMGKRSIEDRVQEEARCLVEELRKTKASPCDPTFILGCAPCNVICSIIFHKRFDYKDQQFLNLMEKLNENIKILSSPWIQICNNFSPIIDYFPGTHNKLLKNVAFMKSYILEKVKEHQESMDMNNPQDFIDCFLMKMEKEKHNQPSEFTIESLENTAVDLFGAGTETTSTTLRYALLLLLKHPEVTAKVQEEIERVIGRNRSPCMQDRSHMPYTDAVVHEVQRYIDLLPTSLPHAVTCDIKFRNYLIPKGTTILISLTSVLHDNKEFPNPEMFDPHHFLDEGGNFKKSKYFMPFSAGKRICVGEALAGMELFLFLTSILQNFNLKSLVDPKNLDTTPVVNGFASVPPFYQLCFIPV
Sequence of Cytochrome P450 3A4 (P08684 whole entry): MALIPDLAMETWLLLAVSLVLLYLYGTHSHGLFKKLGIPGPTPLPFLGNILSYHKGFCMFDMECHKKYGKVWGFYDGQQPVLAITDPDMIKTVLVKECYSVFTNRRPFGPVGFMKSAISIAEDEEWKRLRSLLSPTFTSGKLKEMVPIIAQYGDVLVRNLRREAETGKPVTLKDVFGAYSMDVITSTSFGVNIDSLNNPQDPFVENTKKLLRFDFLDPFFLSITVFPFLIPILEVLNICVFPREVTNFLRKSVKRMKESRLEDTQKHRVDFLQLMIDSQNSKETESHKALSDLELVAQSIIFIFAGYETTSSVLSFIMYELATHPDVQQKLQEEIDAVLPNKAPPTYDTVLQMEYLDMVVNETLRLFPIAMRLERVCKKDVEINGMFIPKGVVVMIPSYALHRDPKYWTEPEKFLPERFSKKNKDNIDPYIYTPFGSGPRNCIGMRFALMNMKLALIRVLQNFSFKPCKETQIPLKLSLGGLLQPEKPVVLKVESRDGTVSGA

SMILES: CC(C)(C)OC(=O)N1CCC(NC(=O)c2[nH]cnc2C(=O)Nc2ccc(Cl)cc2)CC1
- AC50 [1]: 4.79 µM (active)

SMILES: COc1ccc(Oc2ncc3nc(CCc4ccccc4)c(=O)n(C4CC4)c3n2)cc1
- AC50 [2]: 5.01 µM (inconclusive)

SMILES: Clc1ccccc1-c1ccc2ncnc(N3CCNCC3)c2c1
- AC50 [3]: 31.6 µM (inconclusive)
- AC50 [2]: 25.1 µM (inconclusive)

SMILES: Cc1nnc(SCC(=O)NCC2CCCCC2)n(N)c1=O
- AC50 [4]: 25.1 µM (inconclusive)
- AC50 [2]: 25.1 µM (inconclusive)

SMILES: C/C(NNc1ccccc1)=C1/C(=O)NC(=O)N(c2ccccc2)C1=O
- AC50 [1]: 1.05 µM (active)

SMILES: Cc1ccc(C2C(C(=O)c3ccccc3)=C(O)C(=O)N2CCN2CCOCC2)o1 (stereo not given)
- AC50 [3]: 14.1 µM (inconclusive)
- AC50 [2]: 25.1 µM (inconclusive)
- AC50 [5]: 7.08 µM (inconclusive)

SMILES: O=[N+]([O-])c1ccc(N2CCN(CCOCCO)CC2)c([N+](=O)[O-])c1
- IC50 [6]: 204 µM (active)

SMILES: COc1ccc(CN2CCC(C(N)=O)CC2)cc1OCc1ccccc1
- IC50 [6]: 204 µM (active)

SMILES: O=C(c1ccncc1)N1CCC2(CC1)CN(c1ccc(-c3ccccc3)cc1)C2
- AC50 [3]: 2.51 µM (inconclusive)
- AC50 [2]: 2.51 µM (inconclusive)

SMILES: Cc1cc(CSc2ccccc2)ccc1NC(=O)COc1ccccc1
- AC50 [3]: 2.24 µM (inconclusive)
- AC50 [4]: 7.08 µM (inconclusive)
- AC50 [2]: 12.6 µM (inconclusive)

SMILES: CC[C@H]1CC[C@H]2[C@@H]3CC=C4C[C@H](OC(C)=O)[C@@H](N)C[C@@]4(C)[C@H]3CC[C@@]12C
- AC50 [2]: 2.51 µM (inconclusive)

SMILES: COc1ccc(-n2c(=O)c(C)nc3cnc(N4CCNCC4)nc32)cc1
- AC50 [2]: 25.1 µM (inconclusive)

SMILES: O=C(CN1CCN(Cc2ccccc2)CC1)N1CCCc2c1c(=O)oc1ccc(O)cc21
- AC50 [4]: 6.31 µM (inconclusive)
- AC50 [2]: 3.98 µM (inconclusive)

SMILES: O=C(c1ccoc1)N1CCC2(CC1)Oc1ccc(F)cc1C(=O)C21CC(c2ccccc2)=NO1 (stereo not given)
- EC50 [7]: > 150 µM (inconclusive)
- EC50 [8]: 1.18 µM (active)

SMILES: COc1ccccc1CNCC(=O)Nc1ccccc1-n1cccc1
- IC50 [6]: 179 µM (active)

SMILES: CCOC(=O)C1=C(N)Oc2cc(O)ccc2C1c1cccc(Cl)c1 (stereo not given)
- AC50 [1]: 1.77 µM (active)

SMILES: COc1ccc(C(=O)N2CCC3(CCN(Cc4cc(C(F)(F)F)cc(C(F)(F)F)c4)CC3)CC2)cc1
- AC50 [2]: 25.1 µM (inconclusive)

SMILES: Nc1ccc2[nH]c(Cc3ccccc3)nc2c1
- AC50 [9]: > 380 µM (inactive)
- EC50 [10]: 55.9 µM (active)
- IC50 [6]: 76.2 µM (active)

SMILES: COc1ccc(OCCn2ccnc2C)cc1
- IC50 [6]: 136 µM (active)

SMILES: CC(C)NC(=O)c1ccccc1NC(=O)/C=C/c1ccc([N+](=O)[O-])cc1
- AC50 [2]: 35.5 µM (inconclusive)
- AC50 [5]: 2 µM (inconclusive)

SMILES: COc1ccc(-c2sc3ccccc3c2C#CCCO)cc1
- AC50 [1]: 4.81 µM (active)

SMILES: CCOc1ccc(OCC(=O)N(CCC2=CCCCC2)c2c(N)n(Cc3ccccc3)c(=O)[nH]c2=O)cc1
- AC50 [1]: 3.6 µM (active)
- AC50 [11]: 8.66 µM (active)
- AC50 [12]: 27.3 µM (active)
- AC50 [13]: 25.1 µM (active)

SMILES: COc1cc(/C=C(/C#N)c2nc3ccccc3[nH]2)ccc1OCC(=O)Nc1ccccc1C
- AC50 [1]: 0.865 µM (active)

SMILES: COc1ccc2sc(-c3ccc(SC)cc3)c(-c3ccc(O)cc3)c2c1
- AC50 [1]: 2.61 µM (active)

SMILES: COC(=O)c1ccccc1NC(=O)CSc1nnc(C(CO)NC(=O)c2ccccc2Cl)n1C (stereo not given)
- AC50 [2]: 22.4 µM (inconclusive)

SMILES: CN(C)CCCC1Sc2ccccc2Sc2ccccc21 (stereo not given)
- IC50 [6]: 210 µM (active)

SMILES: COc1ccc(CCNC(=O)Cn2c(=O)oc3ccccc32)cc1OC
- AC50 [4]: 12.6 µM (inconclusive)
- AC50 [2]: 22.4 µM (inconclusive)
- AC50 [5]: 2.51 µM (inconclusive)

SMILES: COc1cccc(OC)c1C(=O)Nc1cc(C)on1
- AC50 [3]: 39.8 µM (inconclusive)
- AC50 [4]: 22.4 µM (inconclusive)
- AC50 [2]: 20 µM (inconclusive)

SMILES: CC1CCN(S(=O)(=O)c2ccc3c(c2)C(Cl)(Cl)C(=O)N3)CC1
- IC50 [6]: 60.3 µM (active)

SMILES: COc1cc(/C=N\NC(=O)CNC(=O)C2COc3ccccc3O2)ccc1O (stereo not given)
- IC50 [6]: 29 µM (active)

SMILES: O=c1cc(N2CCOCC2)oc2c(-c3ccccc3)cccc12 [LY-294002]
- AC50 [2]: 10 µM (inconclusive) and 5.01 µM (inconclusive)

From ChEMBL document CHEMBL1201862, “PubChem BioAssay data set” (2004)
